Data reported in a melting point compilation (Tetko et al.; mined from patent text by program, amines drawn as free bases though some values may be those of a salt).

Row | melting point | SMILES
1 | 80 to 82 °C | O=Cc1cc(-n2nnnc2C(F)(F)F)ccc1OCC1CC1
2 | 168 °C | CCOC(=O)C(=O)N1CCC(Cc2ccc(C(C)(C)C)cc2)CC1
3 | 210 to 212 °C | NCc1cccc(Nc2ncnc3[nH]cc(C(=O)c4ccccc4)c23)c1
4 | 109 to 111 °C | O=C(O)CC=C(c1ccccc1)c1ccccc1
5 | 90 to 92 °C | CCOC(=O)Nc1cc([N+](=O)[O-])ccc1F
6 | 115 to 116 °C | CCC(O)(CC)c1cccc(COc2ccc3c(-c4ccoc4)cc(C#N)cc3c2)n1
7 | 78 to 88 °C | CC(=O)Nc1cnc(-c2ccc(CC(C)N3CC(c4cccc(Cl)c4)OC3=O)cc2)o1 (stereo not given)
8 | 169 to 171 °C | O=C1Nc2ccccc2S(=O)(=O)N1C1CCN(Cc2ccccc2)CC1
9 | 183 to 185 °C | COc1nccc2c1C(c1ccccc1C(F)(F)F)c1c(ccnc1OC(C)C)N2 (stereo not given)
10 | 204 to 205 °C | Cc1c(NC(=O)c2ccc(-c3ccc(F)cc3)cc2)ccc2cc(CN3CCCC3C3CCCCC3)cnc12 (stereo not given)
11 | 245 to 246 °C | Cc1nn2c(-c3cccnc3)ccnc2c1C#N
12 | > 225 °C | CS(=O)(=O)Nc1cc(C(O)CNC2CCN(c3ccc(C=C4SC(=O)NC4=O)cc3F)CC2)ccc1O (stereo not given)
13 | > 300 °C | CCCn1c(=O)c2[nH]c(-c3cc(C)n(CC(=O)Nc4ccc(C)cc4)n3)nc2n(CCC)c1=O
14 | 124 to 126 °C | Cc1nc(Cl)c(-c2ccc(F)cc2)n1-c1ccc(Cl)cc1
15 | 131 to 133 °C | COC(=O)C1=C(C)NC(C)=C(C(=O)OC)C1c1cc([N+](=O)[O-])ccc1OCCCCNCC(O)COc1ccccc1 (stereo not given)
16 | 206 to 207 °C | CSC1NC(=O)N(c2ccccc2)C(=O)N1N=C(C)C (stereo not given)
17 | 327 to 329 °C | COc1ccc(C2C3=C(COC3=O)Nc3ccc4ncsc4c32)cc1O (stereo not given)
18 | 71 to 73 °C | Oc1cc(Cl)cc(Br)c1O
19 | 140 to 145 °C | CN(C)CC(C)(C)Oc1ccc(Nc2cc(-c3cccc(-n4ncc5cc(C(C)(C)C)cc(F)c5c4=O)c3CO)nn(C)c2=O)nn1
20 | > 300 °C | CCCn1cc2c(C3C(=O)Nc4ccc(Br)cc43)nc(NCc3ccncc3)nc2n1 (stereo not given)

Row | melting point | SMILES
21 | 75 to 77 °C | O=C(c1cc(C(F)(F)F)cc(C(F)(F)F)c1)N1CCN(C(=O)CN2CC3CC2CN3Cc2ccccc2)C(c2ccc(Cl)c(Cl)c2)C1 (racemic)
22 | 179 °C | O=C(O)COc1ccc(S(=O)(=O)c2cccs2)c(Cl)c1Cl
23 | 144 to 145 °C | O=C1N[C@H](Cc2ccc(Oc3ccccc3)cc2)[C@H](c2ccc(F)cc2)O1 (racemic)
24 | 46 °C | O=C(CBr)c1ccc(Sc2ccccc2)cc1
25 | 186 °C | NC(=O)c1ccn2c1CSC2
26 | 136 to 137 °C | FC(F)(F)Oc1ccc(-c2ccc(OCc3ccccc3)cc2)cc1
27 | 239 to 241 °C | COc1cc(S(C)=O)ccc1-c1ccc(C#N)c(=O)[nH]1 (stereo not given)
28 | 104 to 107 °C | CCCCCCCCCCCCCCCCNc1ccc(C(=O)O)cc1
29 | 188 °C | COCc1cc(Oc2ccc3c(C(=O)Nc4ccc(C)c(C(F)(F)F)c4)cccc3c2)ncn1
30 | 196 to 197 °C | O=C(O)CCc1oc(=S)[nH]c1-c1ccc(Cl)cc1
31 | 263 to 265 °C | O=C(c1c[nH]c2cc([N+](=O)[O-])ccc12)C(F)(F)F
32 | 210 to 211 °C | CSc1nc(N)cc(OCCOCP(=O)(O)O)n1
33 | 139 to 141 °C | CC(C)Oc1ccc2c(O)c(C(=O)O)nc(Cl)c2c1
34 | 189 to 193 °C | O=C1CC(=O)N(c2ccc(Cl)cc2)N1
35 | 189 to 192 °C | CC(C)C(=O)c1cn(Cc2c(F)cccc2F)c2sc(-c3ccccc3)c(CBr)c2c1=O
36 | 164 °C | O=C(N[C@H]1CC[C@H](CCN2CCC(c3cccc4c3CCO4)CC2)CC1)C1(O)CC1
37 | 157 to 158 °C | Cc1ccc(S(=O)(=O)N(c2ccc(C#N)cc2C#N)C(C)C)cc1
38 | 124 to 125 °C | CC(C)OC(=O)C(=C1SC=CS1)S(=O)(=O)C(C)C
39 | 108 to 110 °C | CC1=C(C(=O)O)CCC(C)(C)C1

The next lines start with the compound.

Row | SMILES | melting point
40 | COc1cc(/C=[N+](\[O-])C(C)C)ccc1O | 178 to 180 °C
41 | O=C(Cl)C(=O)c1cn(Cc2ccc(F)cc2)c2ccc(OCc3ccccc3)cc12 | 155 to 158 °C
42 | CNC(=S)N1CCSC1c1ccccc1OCCN1CC=C(c2cccc(F)c2)CC1 (stereo not given) | 147 to 148 °C
43 | CN(C)C(=O)c1cccc(C(=O)Nc2cccc3cc(Br)cnc23)c1 | 157 °C
44 | CCOC(=O)c1ccc(-c2ccc(OC)c3c2OCCO3)cc1 | 141 to 142 °C
45 | COc1cc(OC)nc(Nc2ncccc2C(=O)OCc2ccccc2)n1 | 128 to 131 °C
46 | Cc1ccc(N=Cc2ccc(-c3ccccc3)cc2)cc1 | 137 to 139 °C
47 | CS(=O)(=O)c1ccc(-c2cc(CCCO)nn2C2CCCCC2)cc1 | 138 °C
48 | Cc1nnc2ccc(-c3ccccc3F)nn12 | 147 to 149 °C
49 | CC1(C)CC(=O)C2=C(C1)NC1=C(C(=O)CC(C)(C)C1)C2c1cccc(Oc2ccc(Cl)cc2)c1 | 238 to 239 °C
50 | O=C(NC1C(O)=COC2=C1SC([N+](=O)[O-])C2)c1ccc(C(F)(F)F)cc1 (stereo not given) | 219 to 220 °C
51 | O=Cc1ccc(N(c2ccccc2)c2ccc3c4c(cccc24)CC3)cc1 | 138 to 141 °C
52 | CC1(C)CCSc2cc(-c3cc(-c4ccc(C(=O)O)cc4)ccc3-c3ccccc3)ccc21 | 180 °C
53 | CC(c1ccc(NC=O)cc1)n1ccnc1 (stereo not given) | 129 °C
54 | N#Cc1ccc2c(c1)Sc1ccc(Cl)cc1C=C2 | 207 to 210 °C
55 | Clc1ccc(N2CCN(Cc3cn4cc(Br)ccc4n3)CC2)c(Cl)c1 | 137 to 138 °C
56 | CCOC(=O)C1=C(C)NC(CSCO)=C(C(=O)OCC)C1c1cccc([N+](=O)[O-])c1 (stereo not given) | 113 to 114 °C
57 | O=c1[nH]ccc2cc3cccnc3n12 | 265 to 266 °C
58 | CCCCOC(=O)c1cn2ccnc2s1 | 84 to 86 °C
59 | O=C(Nc1c[nH]nc1C(=O)NCCSc1ccccn1)c1ccccn1 | 162 to 163 °C
60 | CC(C)C(=O)Nc1ccccc1C(F)(F)F | 114 °C

Row | SMILES | melting point
61 | Cc1nn(-c2c(Cl)cc(C(F)(F)F)cc2Cl)nc1CBr | 98 to 100 °C
62 | CCN1CCN(c2c(F)c(N)c3c(=O)c(C(=O)O)cn(C4CC4)c3c2F)CC1 | 236 to 237 °C
63 | c1ccc(CC(=Nn2cncn2)c2ccccc2)cc1 | 78 to 80 °C
64 | CCCCCC1OCc2cc(C(N)=O)ccc2O1 (stereo not given) | 162 to 163 °C
65 | CN(CCO)c1ccnc(CO)c1Cl | 49 to 53 °C
66 | Cc1ccc(CNc2nc(Cl)nc(Nc3ccc4[nH]c(=O)[nH]c4c3)n2)o1 | 164 to 166 °C
67 | CCOC(=O)C1=C(c2ccccc2)Nc2n[nH]cc2C1c1ccccc1Cl (stereo not given) | 214 °C
68 | CC1OCCN1CCNc1ccc(NCCN2CCOC2C)c2c1C(=O)c1c(O)ccc(O)c1C2=O (stereo not given) | 161 to 168 °C
69 | CSc1nnc2c(=O)c3ccc(Cl)cc3ccn12 | 254 to 255 °C
70 | CC#CCOc1ccc(S(=O)(=O)NC(Cc2c[nH]c3ccc(C)cc23)C(=O)O)cc1 (stereo not given) | 45 to 46 °C
71 | N#CCOc1ccc(Cl)cc1-n1nncc1-c1cccc(C(F)(F)F)c1 | 145 to 146 °C
72 | Cc1ccc(C(O)(c2ccc(C)cc2)[C@H](C)OS(C)(=O)=O)cc1 | 83 to 85 °C
73 | COc1ccc(CN2Cc3cncn3C(c3ccc(Br)cc3)C2=O)cc1 (stereo not given) | 123 to 124 °C
74 | O=C(O)C1CSC(c2ccccc2OCCCO[N+](=O)[O-])N1 (stereo not given) | 131 to 134 °C
75 | OCCN1CCN(C(c2ccccc2)(c2ccccc2)c2ccccc2)CC1 | 82 °C
76 | CC(=O)n1c(=NC(F)(F)F)oc2ccccc21 | 140 to 143 °C
77 | CCCOc1ccc(C2=NN(C(=O)Nc3ccc(C(F)(F)F)cc3)CC2N(CCC)C(=O)OCC(Cl)(Cl)Cl)cc1 (stereo not given) | 162 to 163 °C
78 | O=C(CCCC(=O)Oc1cc(O)cc(O)c1)Oc1cc(O)cc(O)c1 | 205 to 208 °C
79 | COC(=O)c1ccc(Cc2c(OCc3ccc(-c4ccccc4-c4nnn[nH]4)cc3)cc(C)nc2C)cc1 | 144 to 145 °C
80 | CCC1Sc2cc(Br)ccc2NC1=O (stereo not given) | 100 °C
81 | C#Cc1cc(OC)c(OC)c(OC)c1 | 68 to 70 °C

Row | SMILES | melting point
82 | N#Cc1c2ccccc2c(-c2ccc(O[C@H](Cc3ccccc3)C(=O)O)cc2)c2c1sc1ccccc12 | 145 to 148 °C
83 | O=C(O)Cc1c(C(=O)c2cccnc2)[nH]c2cc(Cl)ccc12 | 267 to 268 °C
84 | Cc1ccc(NC(=S)NC(NC(=O)c2ccc(C)cc2)C(F)(F)F)cc1 (stereo not given) | 192 to 193 °C
85 | CCNCN1CN=C(c2ccc(OC)c(OC)c2)c2cc(OC)c(OC)cc21 | 128 to 130 °C
86 | O=C(Nc1ccccc1)OCC1(COC(=O)Nc2ccccc2)CSc2ccccc2C1=O | 67 to 69 °C
87 | CCCSc1cccc(-c2nc(=O)c3ccccc3s2)n1 | 124 to 125 °C
88 | O=c1[nH]c(=O)c2c3c(cc([N+](=O)[O-])c2[nH]1)OCO3 | 285 °C
89 | CCOC(=O)c1cnccc1CCCOc1cccnc1Oc1cccc(Cl)c1 | 140 to 164 °C
90 | NC(=O)c1c(Cl)c(-c2ccccc2)n2c1CN(S(=O)(=O)c1ccc(F)cc1)CC2 | 177 to 178 °C
91 | COC(=O)c1ccc(C=O)c2ccccc12 | 95 to 96 °C
92 | C=CCc1ccccc1OCC(O)CNCCc1ccc(NC2CCN(S(=O)(=O)c3ccc(NC(=O)NCCCCCC)cc3)CC2)cc1 (stereo not given) | 68 to 70 °C
93 | CCn1c(O)cc(C)c(C#N)c1=O | 230 to 237 °C
94 | CC(=O)NCCc1ccc(C=O)cc1 | 81 to 83 °C
95 | CCOC(=O)NNc1ccnc2c(NC(=O)c3c(Cl)cccc3Cl)cccc12 | 151 to 155 °C
96 | CCc1ncnc(N[C@H]2CC[C@@H](C=O)CC2)c1Cl | 96 to 97 °C
97 | Oc1ccc(N2CCN(c3ccc(C(F)(F)F)cn3)CC2)cc1 | 178 to 179 °C
98 | COc1ccc(CCC(=O)Nc2cc3c(c(C)c2C)OC(C)(C)C3c2ccc(C)cc2)cc1 (stereo not given) | 149 to 150 °C
99 | CCn1cc(-c2c(-c3ccccc3F)nn3ccncc23)ccc1=O | 173 to 174 °C
100 | COc1cc2c(cc1O)CC1CN(C)Cc3c(O)c(OC)cc-2c31 (stereo not given) | 300 °C
